These results are taken from patent US5492896A, “Pseudopeptides having an antiviral action” (Bayer Aktiengesellschaft, priority 1993, dated 1996).

For data set [1], the system named is HCMV (Davis strain). The data set can be described thus: Anti-HCMV screening test: spread of cytopathogenic effect in HELF cell cultures. In kind it is cell-based, human cytomegalovirus. The following applies: concentration causing 50% inhibition of the CPE, HELF cells, 6 days. How it is done:
(§1) The anti-HCMV action was determined in a screening test system in 96-well microtitre plates with the aid of human embryonal lung fibroblasts (HELF) cell cultures. The influence of the substances on the spread of the cytopathogenic effect was determined in comparison with the reference substance ganciclovir ([…]®-sodium), a clinically approved anti-HCMV chemotherapeutic. The substances are dissolved in DMSO (dimethyl sulphoxide; 50 mM) and investigated on microtitre plates (96-well) in final concentrations of 1000-0.00048 μM (micromolar) in duplicate determinations (4 substances/plate). Toxic and cytostatic actions of the substances are also recorded here. After the appropriate dilutions of the substances (1:2) on the microtitre plate, a suspension of 50-100 HCMV-infected HELF cells and 3×10^4 non-infected HELF cells in Eagle's MEM (minimal essential medium) with 10% foetal calf serum is introduced into each cup and the plates are incubated at 37° C. in a CO2 incubating cabinet for 6 days. After this period, the cell lawn in the substance-free virus controls, starting from 50-100 infectious centres, is completely destroyed by the cytopathogenic effect (CPE) of the HCMV (100% CPE). After staining with neutral red and fixing with formalin/methanol, the plates are evaluated with the aid of a projection microscope (Plaque Viewer). […]

Data set [2] deals with human embryonal lung fibroblasts (HELF). The data set can be described thus: Anticellular (toxic and cytostatic) action in the anti-HCMV screening test. In kind it is cell-based. How it is done:
as §1

The target of data set [3] is T1, HIV protease (HIV-1) (Human immunodeficiency virus type 1 group M subtype B, UniProt P04585).
T1 construct: purified HIV protease was incubated with a synthetic peptide
Put plainly: HIV-specific protease enzyme test (synthetic peptide cleavage, RP-HPLC). In kind it is biochemical. The following applies: 50% inhibition of protease activity; purified HIV protease, synthetic Gag cleavage-site peptide. How it is done: This is documented by an HIV-specific protease enzyme test.
The results of the examples described below were determined by the HIV test system described in the following literature references [compare Hansen, J., Billich, S., Schulze, T., Sukrow, S. and Molling, K. (1988), EMBO Journal, volume 7, No. 6, pages 1785-1791]: purified HIV protease was incubated with a synthetic peptide which imitates a cutting site in the Gag precursor protein and represents an in vivo cleavage site of HIV protease. The cleavage products formed from the synthetic peptide were analysed by reverse phase high performance liquid chromatography (RP-HPLC). The IC50 values stated relate to the substance concentration which causes 50% inhibition of protease activity under the abovementioned test conditions.

Like-named read-outs stand apart in the source and are kept apart here. Numbered stars: 1 amine (or outer) side, 2 acyl side, 3 side chain; on linkers, the order of the positions; unused ones are H or OH. Square brackets hold non-standard residues; d marks the D form. Peptide text beside a SMILES is read from it. * marks the point of attachment. Tos = Cc1ccc(S(=O)(=O)*)cc1; CO = O=C([*:1])[*:2]

Compound `Nc1nc(O)c2ncn(COC(CO)CO)c2n1` [Namevene ®, ganciclovir] returned an IC50 in data set [1] (Human betaherpesvirus 5, 144 h) of 2 to 4 µM. Also, the “CIC50 (μM) HELF” value in data set [2] (maximum concentration which displays no evident anticellular action, HELF cells, 6 days) came to 125 µM.

In data set [3], `CC(C)[C@H](NC(=O)[C@H](CCCNC(=N)N)NC(=O)N[C@@H](Cc1ccccc1)C(=O)O)C(=O)N[C@@H](C=O)Cc1ccccc1` [IX, (2R)-2-{Nα -[((1S)-1-Carboxy-2-phenyl-ethyl)aminocarbonyl]-S-arginyl-S-valinyl}amino-3-phenyl-propan-1-al] ({Phe-CO}-Arg-Val-[dF]-aldehyde) gave an IC50 of 160 µM.

On to `COC(=O)[C@H](Cc1ccccc1)NC(=O)N[C@@H](CCCNC(=N)NS(=O)(=O)c1ccc(C)cc1)C(=O)N[C@H](C(=O)N[C@@H](C=O)Cc1ccccc1)C(C)C` [Example 4] ({OMe-Phe-CO}-Arg(Tos)-Val-[dF]-aldehyde), for which 1.95 µM corresponded to half-maximal inhibition in data set [1] (IC50). The “CIC50 (μM) HELF” value in data set [2] was 62.5 µM.

As for `CC(C)[C@H](NC(=O)[C@H](CCCNC(=N)N)NC(=O)N[C@@H](Cc1ccccc1)C(=O)O)C(=O)N[C@H](C=O)Cc1ccccc1` [VIII, (2S)-2-{Nα -[((1S)-1-Carboxy-2-phenyl-ethyl)aminocarbonyl]-S-arginyl-S-valinyl}amino-3-phenyl-propan-1-al] ({Phe-CO}-Arg-Val-Phe-aldehyde), in data set [3], the 50% inhibitory concentration (IC50) stood at 19 µM.
